According to patent US8067600B2, “Histone deacetylase inhibitors and methods of use thereof” (Georgetown University, priority 2003, dated 2011):
Like-named read-outs stand apart in the source and are kept apart here.

Tests used:
[1] = test system: HDAC; assay: In vitro HDAC inhibitory activity using fluor-Lys as the substrate (BIOMOL); type: biochemical; details: for IC50: read-out: 50% HDAC Activity Inhibition
Method: The in vitro HDAC inhibitory activity of these compounds was determined by using fluor-Lys as the substrate (BIOMOL).

[2] = test system: HDAC; assay: HDAC activity inhibition assay, HeLa nuclear extracts, Fluor de Lys substrate; type: biochemical; details: HeLa nuclear extract, 37° C., 15 min, read-out: 50% HDAC activity inhibition
Method: For each test sample the corresponding assay reaction was performed in triplicate. […] For the selected Compounds of the Invention, samples at the following concentrations were prepared and tested: 1 μM, 5 μM, 10 μM, 100 μM and 1 mM.

[3] = Cytotoxicity in SQ-20B cells (colony formation); details: human, SQ-20B squamous carcinoma cells
Method: (§3) For each concentration indicated, individual T25 flasks were seeded with the following number of SQ-20B cells: for no drug, 10 μM and 50 μM drug concentrations, separate T25 flasks were each seeded with 100 cells; for 100 μM and 300 μM drug concentrations, separate T25 flasks were each seeded with 200 cells each; and for 500 μM and 1 mM drug concentrations, separate T25 flasks were each seeded with 300 cells each. A Levy Hemacytometer (Hausser Scientific) was used to count the cells in stock suspension. Serial dilutions of stock suspension were performed to obtain the proper concentration for cell seeding. To conduct the cytotoxicity study the SQ20B cells were first seeded under the appropriate treatment specifications and allowed to settle for 24 hr in a tissue culture incubator set at 37° C. and 5% CO2. Cells were treated with their corresponding drugs for 24 hr and then washed with three rinses of PBS (10 mL per rinse) and provided with new media. The cells were then further incubated for colony formation and the colonies were stained using a staining solution consisting of: 5 g Crystal Violet, 700 mL methanol and 300 mL dH2O. The flasks were then destained with three rinses in cold water. After the third rinse the stained colonies were counted and the corresponding IC50 for each drug was calculated.

[4] = test system: SQ-20B cells; assay: Radiation clonogenic survival assay (radiation sensitization); type: cell-based, human; set-up: α / β: unit not given here; details: drug at IC50 concentration for 24 h, then graded gamma radiation; for α / β: linear quadratic model; for Do in SQ-20B Cells (Gy): single hit multi-target model, Do without sensitizer 2.4 Gy
Method: To test the ability of the Compounds of the Invention to sensitize cells to radiation, we used radiation resistant squamous carcinoma cell line, SQ-20B, for initial radiosensitization experiments. SQ-20B is extremely resistant to ionizing radiation (Do=2.4 Gy in the absence of radiation sensitizers). Briefly, logarithmically growing SQ-20B cells were treated with a drug compound at the IC50 concentration (determined using the clonogenic survival assay illustrated in Example 21) for 24 h and then exposed to graded dose of gamma radiation. Clonogenic survivals were determined and fit to the single hit multi-target and the linear quadratic models.
The shape of radiation survival curves are determined by using either the single-hit multitarget model or the linear-quadratic model. The multitarget model is used to describe the radiation sensitivity of cells defined by the terminal slope of the radiation survival curve, which is referred to as Do. The steeper the slope, the smaller is the value of Do and the more radiation sensitive is the cellular response. Alternatively, a less steep slope results in a larger Do and a more resistant radiation response. The linear-quadratic model is also used to describe the radiation sensitivity defined by two components to cell killing by radiation: one is proportional to dose (αD) and the other is proportional to the square of the dose (βD^2). Thus, the dose at which the linear and quadratic components are equal is the ratio α/β.
Shown in Table 4 are the results of selected compounds of the invention in the radiation clonigenic survival assay.

[5] = test system: SQ-20B cells
Method: as §3

[6] = test system: SQ-20B cells; assay: Cytotoxicity in SQ-20B cells (colony formation); details: read-out: Cytotoxicity in SQ-20B cells (IC50); 24 hr drug treatment, colony formation
Method: as §3

[7] = test system: squamous cancer cells (SQ-20B); assay: Cytotoxicity following 24 h exposure, SQ-20B (FIG. 2); type: cell-based, human; details: squamous carcinoma cells (SQ-20B)
Method: (§1) FIG. 2 depicts graphically the cytotoxicities of various compounds of the invention following 24 h exposure of human breast cancer cells (MCF-7) and squamous cancer cells (SQ-20B).
(§2) To test the biological effects of the compounds of this and the previous Example, cytotoxicities were determined following 24 h exposure of human breast cancer cells (MCF-7) and squamous cancer cells (SQ-20B) to three compounds (4g, 4c and 10a). FIG. 2.

[8] = test system: human breast cancer cells (MCF-7); assay: Cytotoxicity following 24 h exposure, MCF-7 (FIG. 2); type: cell-based; details: breast carcinoma cells (MCF-7)
Method: as §1, §2

Compound	IC50 ([1]; fluor-Lys substrate (BIOMOL))	IC50 [2]	α [4]	β [4]	Do in SQ-20B Cells (Gy) [4]	further results
O=C(CS)NCCCCCCNC(=O)CS [Compound 4j, 2-Mercapto-N-[6-(2-mercapto-acetylamino)-hexyl]-acetamide]	10000 nM					
O=C(CS)NCCCCCNC(=O)Nc1ccccc1 [Compound 9, 2-Mercapto-N-[5-(3-phenyl-ureido)-pentyl]-acetamide]		900 nM				
CN(C)c1ccc(C(=O)NCc2ccc(CNC(=O)CS)cc2)cc1 [Compound 4k, 4-Dimethylamino-N-{4-[(2-mercapto-acetylamino)-methyl]-benzyl}-benzamide]	200 nM					in vitro HDAC inhibitory activity (in words) ([1]; fluor-Lys substrate (BIOMOL)): comparable HDAC inhibitory activity
O=C(CS)NCCCCCNC(=O)c1cccc2cccnc12 [Compound 4m, Quinoline-8-carboxylic acid [5-(2-mercapto-acetylamino)-pentyl]-amide]	400 nM					
O=C(CS)NCCCCCNC(=O)c1cnc2ccccc2c1 [Compound 4l, Quinoline-3-carboxylic acid [5-(2-mercapto-acetylamino)-pentyl]-amide]	250 nM					
O=C(CCCCCNC(=O)NC12CC3CC(CC(C3)C1)C2)NO [Compound 8, 6-(3-Adamantan-1-yl-ureido)-hexanoic Acid Hydroxyamide]		800 nM	0.2378	0.02282	1.78 Gy	IC50 at 24 h [3]: 50 µM
O=C(CS)NCCCCNC(=O)c1ccc(-c2ccccc2)cc1 [Compound 4f, Biphenyl-4-carboxylic acid [4-(2-mercapto-acetylamino)-butyl]-amide]	13000 nM					
O=C(CS)NCCCCCNC(=O)c1ccc(-c2ccccc2)cc1 [Compound 23]		750 nM				
O=C(CS)NCCCCCNC(=O)c1ccc(-c2ccccc2)cc1 [Compound 4g, Biphenyl-4-carboxylic acid [5-(2-mercapto-acetylamino)-pentyl]-amide]	550 nM					
CN(C)c1ccc(C(=O)NCCCCCCNC(=O)CS)cc1 [Compound 4d, 4-Dimethylamino-N-[6-(2-mercapto-acetylamino)-hexyl]-benzamide]	450 nM					
CN(C)c1ccc(C(=O)NCCCCCCNC(=O)CS)cc1 [Compound 22]		800 nM				
4-[3-(4-Dimethylamino-benzyl)-ureido]-N-hydroxy-butyramide [Compound 2]		800 nM	0.1681	0.03301	1.62 Gy	IC50 [5]: 50 µM
O=C(CS)NCCCNC(=O)c1ccc(-c2ccccc2)cc1 [Compound 4e, Biphenyl-4-carboxylic acid [3-(2-mercapto-acetylamino)-propyl]-amide]	800 nM					
CN(C)c1ccc(C(=O)NCCCNC(=O)CS)cc1 [Compound 4a, 4-Dimethylamino-N-[3-(2-mercapto-acetylamino)-propyl]-benzamide]	800 nM					
O=C(CS)NCCCCCCNC(=O)c1ccccc1 [Compound 21]		1600 nM				
CN(C)c1ccc(C(=O)NCCCCNC(=O)CS)cc1 [Compound 4b, 4-Dimethylamino-N-[4-(2-mercapto-acetylamino)-butyl]-benzamide]	4700 nM					
O=C(CS)NCCCCCCNC(=O)Nc1ccccc1 [Compound 10, 2-Mercapto-N-[6-(3-phenyl-ureido)-hexyl]-acetamide]		900 nM	0.1135	0.01558	2.54 Gy	IC50 at 24 h [3]: 50 µM
5-[3-(4-dimethylamino-benzyl)-ureido]-pentanoic Acid Hydroxyamide [Compound 3]		800 nM	0.2420	0.02486	1.72 Gy	IC50 [6]: 25 µM
O=C(CS)NCCCCCNC(=O)NCc1ccccc1 [Compound 11, N-[5-(3-benzyl-ureido)-pentyl]-2-mercapto-acetamide]		1600 nM				
O=C(CS)NCCCCCCNC(=O)c1ccccc1 [Compound 4i, N-[6-(2-Mercapto-acetylamino)-hexyl]-benzamide]	900 nM					
O=C(CCCCCCC(=O)Nc1ccccc1)NO [SAHA, suberoylanilide hydroxamic acid, reference compound]			0.01197	0.03152	1.88 Gy	
O=C(CS)NCCCCCNC(=O)c1ccccc1 [Compound 25]		1000 nM				
CN(C)c1ccc(C(=O)NCCCCCNC(=O)CS)cc1 [Compound 24]		800 nM				
CC(/C=C/C(=O)NO)=C\[C@@H](C)C(=O)c1ccc(N(C)C)cc1 [TSA, 7-(4-(dimethylamino)phenyl)-n-hydroxy-4,6-dimethyl-7-oxo-2,4-heptadienamide, reference compound]			0.1260	0.03059	1.65 Gy	IC50 at 24 h [3]: 0.2 µM
CN(C)c1ccc(CNC(=O)NCCCCCCC(=O)NO)cc1 [Compound 5, 7-[3-(4-dimethylamino-benzyl)-ureido]-heptanoic Acid Hydroyxamide]		1000 nM	0.1978	0.02561	1.78 Gy	IC50 at 24 h [3]: 50 µM
O=C(CS)NCCCCCNC(=O)c1ccccc1 [Compound 4h, N-[5-(2-Mercapto-acetylamino)-pentyl]-benzamide]	1100 nM					
CN(C)c1ccc(NC(=O)NCCCCCCC(=O)NO)cc1 [Compound 7, 7-[3-(4-dimethylamino-phenyl)-ureido]-heptanoic Acid Hydroxyamide]		700 nM	0.1391	0.03335	1.57 Gy	IC50 at 24 h [3]: 10 µM
CN(C)c1ccc(C(=O)NCCCCCNC(=O)CS)cc1 [Compound 4c, 4-Dimethylamino-N-[5-(2-mercapto-acetylamino)-pentyl]-benzamide]						IC50 [1]: 200 nM; cytotoxicities (in words) [7]: dose-dependent cytotoxicities; cytotoxicities (in words) [8]: dose-dependent cytotoxicities
CN(C)c1ccc(CNC(=O)NCCCCCCCC(=O)NO)cc1 [Compound 6, 8-[3-(4-dimethylamino-benzyl)-ureido]-octanoic Acid Hydroxyamide]		700 nM	0.2846	0.01761	1.94 Gy	IC50 at 24 h [3]: 50 µM
